Patent publication US12509431B2, “1,4-dihydroquinazolinone compounds and uses thereof” (Edgewise Therapeutics, Inc., priority 2022, dated 2025)

Experiments:
Format in all cases: biochemical
Conditions in all cases: Table 8
[1] = test system: Rabbit Skeletal myofibrils (rabbit psoas muscle); assay: Myofibril ATPase assay (PK/LDH NADH-coupled), skeletal myofibrils
Method in brief: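 Rabbit psoas myofibrils in pCa (PIPES/CaCl2/EGTA, pH 7.0) buffer; ADP coupled via PK/LDH to NADH loss, read at 340 nm every 1.5–2 min for 75 min. Slopes normalized to vehicle (100%) and fit to 4-parameter logistic for EC25, plus EC50 for inhibitors.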

[2] = target: T1, Porcine Ventricle myofibrils (left ventricle of Yucatan minipigs) (Sus scrofa, UniProt P79293); assay: Myofibril ATPase assay (PK/LDH NADH-coupled), ventricle myofibrils
T1 construct: Myofibrils from porcine cardiac muscle was isolated from the left ventricle of Yucatan minipigs; tissue Exemplar Genetics; host or cells: left ventricle of Yucatan minipigs
Method in brief: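 Yucatan minipig left-ventricle myofibrils; ATPase measured by PK/LDH-coupled NADH loss at 340 nm, read every 1.5-2 min for 75 min. Slopes normalized to vehicle (100%) and fit to 4-parameter logistic model; EC25 and, for inhibitors, EC50 calculated.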

Porcine Atria myofibrils = assay: Myofibril ATPase assay (PK/LDH NADH-coupled), atria myofibrils
Method in brief: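 Porcine atrial myofibril ATPase followed via PK/LDH-coupled NADH depletion, absorbance at 340 nm read every 1.5-2 min over 75 min. Slopes (mAU/min) normalized to vehicle as 100% and fit to a 4-parameter logistic; EC25% derived, plus EC50% for inhibitors.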

T1 sequence (P79293 whole entry): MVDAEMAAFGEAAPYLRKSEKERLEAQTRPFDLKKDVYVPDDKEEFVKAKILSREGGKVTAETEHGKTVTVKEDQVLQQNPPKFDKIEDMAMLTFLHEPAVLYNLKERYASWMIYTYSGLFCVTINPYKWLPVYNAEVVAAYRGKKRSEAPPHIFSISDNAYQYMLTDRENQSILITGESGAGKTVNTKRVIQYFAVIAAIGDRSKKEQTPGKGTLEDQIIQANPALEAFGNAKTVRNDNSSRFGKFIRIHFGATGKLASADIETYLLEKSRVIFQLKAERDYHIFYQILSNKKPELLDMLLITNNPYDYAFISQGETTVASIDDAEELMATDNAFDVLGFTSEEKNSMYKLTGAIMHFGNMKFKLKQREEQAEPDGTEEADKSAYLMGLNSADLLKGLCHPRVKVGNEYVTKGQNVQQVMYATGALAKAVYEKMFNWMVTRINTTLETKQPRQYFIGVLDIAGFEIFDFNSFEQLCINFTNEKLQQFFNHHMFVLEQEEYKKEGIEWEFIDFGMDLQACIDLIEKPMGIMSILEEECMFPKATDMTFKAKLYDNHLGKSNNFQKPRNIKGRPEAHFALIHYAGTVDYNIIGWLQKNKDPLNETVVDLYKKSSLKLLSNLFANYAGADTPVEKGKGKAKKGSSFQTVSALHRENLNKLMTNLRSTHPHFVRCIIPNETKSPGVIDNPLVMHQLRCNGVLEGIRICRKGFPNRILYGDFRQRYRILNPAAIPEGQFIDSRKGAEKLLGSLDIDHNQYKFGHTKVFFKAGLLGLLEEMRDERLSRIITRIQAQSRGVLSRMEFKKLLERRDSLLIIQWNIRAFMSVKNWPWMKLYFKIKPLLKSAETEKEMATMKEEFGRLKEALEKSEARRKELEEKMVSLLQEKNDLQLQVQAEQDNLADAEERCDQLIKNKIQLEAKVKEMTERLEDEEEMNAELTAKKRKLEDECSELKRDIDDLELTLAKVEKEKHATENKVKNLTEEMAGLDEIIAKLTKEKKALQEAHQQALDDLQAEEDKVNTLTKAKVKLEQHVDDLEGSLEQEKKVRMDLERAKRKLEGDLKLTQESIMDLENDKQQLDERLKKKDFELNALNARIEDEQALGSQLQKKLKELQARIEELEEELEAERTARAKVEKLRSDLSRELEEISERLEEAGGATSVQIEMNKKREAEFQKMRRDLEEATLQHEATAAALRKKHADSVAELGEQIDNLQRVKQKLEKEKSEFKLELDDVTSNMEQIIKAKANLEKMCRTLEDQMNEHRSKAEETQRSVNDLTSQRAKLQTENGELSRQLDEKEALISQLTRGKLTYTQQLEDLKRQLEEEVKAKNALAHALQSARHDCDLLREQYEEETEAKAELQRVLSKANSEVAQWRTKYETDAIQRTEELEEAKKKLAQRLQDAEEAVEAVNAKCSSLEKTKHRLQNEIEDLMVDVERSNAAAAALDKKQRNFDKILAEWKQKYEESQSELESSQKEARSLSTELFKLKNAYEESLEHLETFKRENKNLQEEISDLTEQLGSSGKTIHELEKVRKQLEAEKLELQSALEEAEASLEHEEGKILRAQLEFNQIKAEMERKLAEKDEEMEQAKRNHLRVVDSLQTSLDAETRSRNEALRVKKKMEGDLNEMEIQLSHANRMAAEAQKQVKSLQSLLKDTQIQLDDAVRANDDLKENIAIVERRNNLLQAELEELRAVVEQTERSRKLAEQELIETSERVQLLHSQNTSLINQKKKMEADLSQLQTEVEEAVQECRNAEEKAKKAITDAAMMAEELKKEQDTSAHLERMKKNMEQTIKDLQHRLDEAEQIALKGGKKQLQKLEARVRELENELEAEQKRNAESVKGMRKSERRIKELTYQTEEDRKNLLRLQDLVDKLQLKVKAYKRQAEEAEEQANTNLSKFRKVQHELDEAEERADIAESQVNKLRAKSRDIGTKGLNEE

C[C@H](NC(=O)[C@@H](C)N1Cc2c(F)cccc2NC1=O)c1ccc(F)cc1F [Compound B223]
Rabbit Psoas IC25 [1]: 1.426 µM
Porcine Ventricle IC25 [2]: 3.783 µM
Porcine Atria IC25 (Porcine Atria myofibrils): 0.44 µM

Cc1cc(F)ccc1[C@@H](C)NC(=O)CN1Cc2cc(F)ccc2NC1=O [Compound B224]
Rabbit Psoas IC25 [1]: 3.991 µM
Porcine Ventricle IC25 [2]: 100 µM
Porcine Atria IC25 (Porcine Atria myofibrils): 28.57 µM

Cc1cc(F)ccc1[C@H](C)NC(=O)CN1Cc2cc(F)ccc2NC1=O [Compound B225]
Rabbit Psoas IC25 [1]: 0.0175 µM
Porcine Ventricle IC25 [2]: 0.1849 µM
Porcine Atria IC25 (Porcine Atria myofibrils): 0.05 µM

C[C@H](NC(=O)CN1Cc2c(Br)cccc2NC1=O)c1ccc(F)cc1F [Compound B226]
Rabbit Psoas IC25 [1]: 0.0244 µM
Porcine Ventricle IC25 [2]: 0.2274 µM
Porcine Atria IC25 (Porcine Atria myofibrils): 0.14 µM

C[C@H](NC(=O)[C@H](C)N1Cc2c(Br)cccc2NC1=O)c1ccc(F)cc1F [Compound B227]
Rabbit Psoas IC25 [1]: 0.0127 µM
Porcine Ventricle IC25 [2]: 0.2485 µM
Porcine Atria IC25 (Porcine Atria myofibrils): 0.06 µM

C[C@H](NC(=O)[C@@H](C)N1Cc2c(Br)cccc2NC1=O)c1ccc(F)cc1F [Compound B228]
Rabbit Psoas IC25 [1]: 0.2844 µM
Porcine Ventricle IC25 [2]: 2.111 µM
Porcine Atria IC25 (Porcine Atria myofibrils): 0.32 µM

C[C@H](NC(=O)CN1C(=O)Nc2ccccc2C12CC2)c1ccc(F)cc1F [Compound B229, N-[(1S)-1-(2,4-Difluorophenyl)ethyl]-2-{2′-oxo-1′H-spiro[cyclopropane-1,4′-quinazolin]-3′-yl}acetamide]
Rabbit Psoas IC25 [1]: 0.0356 µM
Porcine Ventricle IC25 [2]: 0.156 µM
Porcine Atria IC25 (Porcine Atria myofibrils): 0.06 µM

C[C@H](NC(=O)CN1Cc2cc(F)ccc2NC1=O)c1ncc(F)cc1F [Compound B230]
Rabbit Psoas IC25 [1]: 0.182 µM
Porcine Ventricle IC25 [2]: 1.835 µM
Porcine Atria IC25 (Porcine Atria myofibrils): 0.22 µM

C[C@H](NC(=O)CN1C(=O)Nc2ccc(F)cc2[C@H]1C(F)(F)F)c1ccc(F)cc1F [Compound B235]
Rabbit Psoas IC25 [1]: 100 µM
Porcine Ventricle IC25 [2]: 100 µM
Porcine Atria IC25 (Porcine Atria myofibrils): 1.15 µM

C[C@H](NC(=O)[C@@H](C)N1Cc2c(ccc(F)c2F)NC1=O)c1ccc(F)cc1F [Compound B236]
Rabbit Psoas IC25 [1]: 0.0333 µM
Porcine Ventricle IC25 [2]: 0.2316 µM
Porcine Atria IC25 (Porcine Atria myofibrils): 0.03 µM

C[C@H](NC(=O)[C@H](C)N1Cc2c(ccc(F)c2F)NC1=O)c1ccc(F)cc1F [Compound B237]
Rabbit Psoas IC25 [1]: 0.3164 µM
Porcine Ventricle IC25 [2]: 8.122 µM
Porcine Atria IC25 (Porcine Atria myofibrils): 0.28 µM

C[C@H](NC(=O)CN1Cc2c(ccc(F)c2F)NC1=O)c1ccc(F)cc1F [Compound B238]
Rabbit Psoas IC25 [1]: 0.0116 µM
Porcine Ventricle IC25 [2]: 0.1435 µM
Porcine Atria IC25 (Porcine Atria myofibrils): 0.03 µM

C[C@@H](NC(=O)[C@H](C)N1Cc2cc(F)ccc2NC1=O)c1ccc(F)cc1F [Compound B239]
Rabbit Psoas IC25 [1]: 7.191 µM
Porcine Ventricle IC25 [2]: 100 µM
Porcine Atria IC25 (Porcine Atria myofibrils): 100.00 µM

C[C@H](C(=O)N[C@H](C)c1ccc(F)cc1F)N1Cc2cc(F)ccc2NC1=O [Compound B240]
Rabbit Psoas IC25 [1]: 0.8825 µM
Porcine Ventricle IC25 [2]: 100 µM
Porcine Atria IC25 (Porcine Atria myofibrils): 25.37 µM

C[C@H](NC(=O)[C@@H](C)N1Cc2cc(F)ccc2NC1=O)c1ccc(F)cc1F [Compound B241]
Rabbit Psoas IC25 [1]: 0.034 µM
Porcine Ventricle IC25 [2]: 1.243 µM
Porcine Atria IC25 (Porcine Atria myofibrils): 0.11 µM

C[C@H](NC(=O)[C@H](C)N1Cc2cc(F)ccc2NC1=O)c1ccc(F)cc1F [Compound B242]
Rabbit Psoas IC25 [1]: 0.3555 µM
Porcine Ventricle IC25 [2]: 100 µM
Porcine Atria IC25 (Porcine Atria myofibrils): 58.71 µM

CC(C(=O)N[C@@H](C)c1ccc(F)cc1F)N1Cc2ccccc2NC1=O (stereo partly drawn) [Compound B243]
Rabbit Psoas IC25 [1]: 10.96 µM
Porcine Ventricle IC25 [2]: 11.52 µM
Porcine Atria IC25 (Porcine Atria myofibrils): 0.19 µM

CC1c2ccccc2NC(=O)N1CC(=O)N[C@@H](C)c1ccc(F)cc1F (stereo partly drawn) [Compound B244, N-[(1S)-1-(2,4-Difluorophenyl)ethyl]-2-(4-methyl-2-oxo-1,4-dihydroquinazolin-3-yl)acetamide]
Rabbit Psoas IC25 [1]: 0.695 µM
Porcine Ventricle IC25 [2]: 4.818 µM
Porcine Atria IC25 (Porcine Atria myofibrils): 2.50 µM

C[C@H](NC(=O)CN1C(=O)Nc2ccccc2C1(C)C)c1ccc(F)cc1F [Compound B245]
Rabbit Psoas IC25 [1]: 9.295 µM
Porcine Ventricle IC25 [2]: 11.66 µM
Porcine Atria IC25 (Porcine Atria myofibrils): 0.94 µM

C[C@H](NC(=O)CN1C(=O)Nc2ccccc2C12CCCCC2)c1ccc(F)cc1F [Compound B246]
Rabbit Psoas IC25 [1]: 19.62 µM
Porcine Ventricle IC25 [2]: 73.7 µM
Porcine Atria IC25 (Porcine Atria myofibrils): 100.00 µM

C[C@H](NC(=O)CN1Cc2c(F)cccc2NC1=O)c1ccc(F)cc1F [Compound B248, N-[(1S)-1-(2,4-Difluorophenyl)ethyl]-2-(5-fluoro-2-oxo-1,4-dihydroquinazolin-3-yl)acetamide]
Rabbit Psoas IC25 [1]: 0.062 µM
Porcine Ventricle IC25 [2]: 0.2832 µM
Porcine Atria IC25 (Porcine Atria myofibrils): 0.05 µM

C[C@H](NC(=O)CN1Cc2ccccc2NC1=O)c1ccc(F)cc1F [Compound B249, N-[(1S)-1-(2,4-difluorophenyl)ethyl]-2-(2-oxo-1,4-dihydroquinazolin-3-yl)acetamide]
Rabbit Psoas IC25 [1]: 0.02766 µM
Porcine Ventricle IC25 [2]: 0.6589 µM
Porcine Atria IC25 (Porcine Atria myofibrils): 0.07 µM

C[C@@H](NC(=O)CN1Cc2c(ccc(F)c2F)NC1=O)c1ncc(C(N)=O)cc1O [Compound B250]
Rabbit Psoas IC25 [1]: 36.83 µM
Porcine Ventricle IC25 [2]: 60.47 µM
Porcine Atria IC25 (Porcine Atria myofibrils): 81.49 µM

C[C@@H](NC(=O)CN1Cc2cc(CN(C)C)ccc2NC1=O)c1ncc(C#N)cc1F [Compound B251]
Rabbit Psoas IC25 [1]: 100.00 µM
Porcine Ventricle IC25 [2]: 100.00 µM
Porcine Atria IC25 (Porcine Atria myofibrils): 8.81 µM

C[C@H](NC(=O)CN1Cc2cc(CN(C)C)ccc2NC1=O)c1ncc(C#N)cc1F [Compound B252]
Rabbit Psoas IC25 [1]: 36.83 µM
Porcine Ventricle IC25 [2]: 60.47 µM
Porcine Atria IC25 (Porcine Atria myofibrils): 81.49 µM

CNC(=O)N1CC2(C1)c1cc(F)ccc1NC(=O)N2CC(=O)N[C@H](C)c1ncc(C#N)cc1F [Compound B253]
Rabbit Psoas IC25 [1]: 86.41 µM
Porcine Ventricle IC25 [2]: 100.00 µM
Porcine Atria IC25 (Porcine Atria myofibrils): 100.00 µM

CNC(=O)N1CC2(C1)c1cc(F)ccc1NC(=O)N2CC(=O)N[C@@H](C)c1ncc(C#N)cc1F [Compound B254]
Rabbit Psoas IC25 [1]: 100.00 µM
Porcine Ventricle IC25 [2]: 100.00 µM
Porcine Atria IC25 (Porcine Atria myofibrils): 100.00 µM

CC(=O)N1CC2(C1)c1cc(F)ccc1NC(=O)N2CC(=O)N[C@H](C)c1ncc(C#N)cc1F [Compound B255]
Rabbit Psoas IC25 [1]: 100.00 µM
Porcine Ventricle IC25 [2]: 100.00 µM
Porcine Atria IC25 (Porcine Atria myofibrils): 100.00 µM

CC(=O)N1CC2(C1)c1cc(F)ccc1NC(=O)N2CC(=O)N[C@@H](C)c1ncc(C#N)cc1F [Compound B256]
Rabbit Psoas IC25 [1]: 39.41 µM
Porcine Ventricle IC25 [2]: 46.27 µM
Porcine Atria IC25 (Porcine Atria myofibrils): 75.74 µM

C[C@@H](NC(=O)CN1Cc2c(ccc(F)c2F)NC1=O)c1ncc(-n2ncnn2)cc1F [Compound B264]
Rabbit Psoas IC25 [1]: 100.00 µM
Porcine Ventricle IC25 [2]: 0.89 µM
Porcine Atria IC25 (Porcine Atria myofibrils): 0.52 µM

C[C@H](NC(=O)CN1Cc2c(ccc(F)c2F)NC1=O)c1ncc(-n2ncnn2)cc1F [Compound B265]
Rabbit Psoas IC25 [1]: 100.00 µM
Porcine Ventricle IC25 [2]: 5.36 µM
Porcine Atria IC25 (Porcine Atria myofibrils): 1.88 µM

C[C@@H](NC(=O)C(C)(C)N1Cc2c(ccc(F)c2F)NC1=O)c1ncc(C#N)cc1F [Compound B266]
Rabbit Psoas IC25 [1]: 0.95 µM
Porcine Ventricle IC25 [2]: 1.38 µM
Porcine Atria IC25 (Porcine Atria myofibrils): 0.05 µM

C[C@H](NC(=O)C(C)(C)N1Cc2c(ccc(F)c2F)NC1=O)c1ncc(C#N)cc1F [Compound B267]
Rabbit Psoas IC25 [1]: 18.40 µM
Porcine Ventricle IC25 [2]: 3.96 µM
Porcine Atria IC25 (Porcine Atria myofibrils): 0.18 µM

C[C@@H](NC(=O)C1(N2Cc3c(ccc(F)c3F)NC2=O)CC1)c1ncc(C#N)cc1F [Compound B268]
Rabbit Psoas IC25 [1]: 6.91 µM
Porcine Ventricle IC25 [2]: 3.06 µM
Porcine Atria IC25 (Porcine Atria myofibrils): 0.11 µM

C[C@@H](NC(=O)CN1Cc2c(ccc(F)c2F)NC1=O)c1cc2cccnc2cn1 [Compound B270]
Rabbit Psoas IC25 [1]: 100.00 µM
Porcine Ventricle IC25 [2]: 100.00 µM
Porcine Atria IC25 (Porcine Atria myofibrils): 1.18 µM

C[C@H](NC(=O)CN1Cc2c(ccc(F)c2F)NC1=O)c1cc2cccnc2cn1 [Compound B271]
Rabbit Psoas IC25 [1]: 100.00 µM
Porcine Ventricle IC25 [2]: 55.13 µM
Porcine Atria IC25 (Porcine Atria myofibrils): 100.00 µM

C[C@@H](NC(=O)[C@H](C)N1Cc2c(ccc(F)c2F)NC1=O)c1ncc(C#N)cc1F [Compound B272]
Rabbit Psoas IC25 [1]: 0.74 µM
Porcine Ventricle IC25 [2]: 0.75 µM
Porcine Atria IC25 (Porcine Atria myofibrils): 0.05 µM

C[C@H](C(=O)N[C@H](C)c1ncc(C#N)cc1F)N1Cc2c(ccc(F)c2F)NC1=O [Compound B273]
Rabbit Psoas IC25 [1]: 1.57 µM
Porcine Ventricle IC25 [2]: 22.58 µM
Porcine Atria IC25 (Porcine Atria myofibrils): 1.96 µM

C[C@@H](NC(=O)CN1Cc2c(ccc(F)c2F)NC1=O)c1ccc2cnccc2n1 [Compound B274]
Rabbit Psoas IC25 [1]: 100.00 µM
Porcine Ventricle IC25 [2]: 95.97 µM
Porcine Atria IC25 (Porcine Atria myofibrils): 1.10 µM

C[C@H](NC(=O)CN1Cc2c(ccc(F)c2F)NC1=O)c1ccc2cnccc2n1 [Compound B275]
Rabbit Psoas IC25 [1]: 100.00 µM
Porcine Ventricle IC25 [2]: 100.00 µM
Porcine Atria IC25 (Porcine Atria myofibrils): 8.27 µM

C[C@@H](NC(=O)CN1Cc2cc3c(cc2NC1=O)OCCO3)c1ncc(C#N)cc1F [Compound B276]
Rabbit Psoas IC25 [1]: 30.80 µM
Porcine Ventricle IC25 [2]: 23.74 µM
Porcine Atria IC25 (Porcine Atria myofibrils): 100.00 µM
